What all share (type): in vivo
One data set has as its system rice (GA-tolerant). The data set can be described thus: Greenhouse trial, crop plant compatibility in rice (GA-tolerant). The protocol:
(§1) The trials were carried out under greenhouse conditions (test pots, diameter 8 cm, spray application using 300 l of water/hectare, 2 repetitions, 6 to 8 plants per pot, permanently flooded).
(§2) Scoring was by visual comparison of the treated with the untreated controls (0-100% scale, 13-15 days after the application) (see details in the respective tables).

The test system of a further data set is Cyperus esculentus. The data set can be described thus: Greenhouse trial, efficacy with respect to Cyperus esculentus. The settings on record: post-emergence, 1-3-leaf stage, scoring 15 days after application. The method, then:
as §1
(§3) Application was by post-emergence treatment, the species of the harmful plants and their stage of growth at the time of treatment are indicated in the individual results tables. The application rates of the herbicidally active compounds used on their own or in combinations are likewise listed in the individual results tables.
as §2
(§4) 4.2 Abbreviations Used in Tables 4 to 6 • application rate g/ai=application rate in grams of active compound per hectare • ai=active ingredient (of an active compound content of 100%) • GA=glufosinate-ammonium • GA-tolerant=rice which is tolerant to GA (GMO: LL-rice) • E^C=expected value according to Colby, (E^C=A+B−A×B/100) • =for ternary combinations: (A+B)+C−(A+B)×C/100 • E^A=expected value according to the addition method (E^A=A+B) • Δ=difference (%) between observed value—%—vs. expected value (%) (observed value minus expected value) examination: observed values for (A), (B) and (A)+(B) in scoring: observed value (%) greater >than E^C/E^A:->synergism (+Δ) • observed value (%) equal to =E^C/E^A->additive effect (+−0Δ) • observed value (%) smaller <than E^A/E^C->antagonism (−Δ)

The next data set relates to Amaranthus retroflexus. As to the kind of experiment: Greenhouse trial, efficacy with respect to Amaranthus retroflexus. Particulars: post-emergence, 2-3-leaf stage, scoring 13 days after treatment. The protocol: as §1, §3, §2, §4
The subject of the next data set is Leptochloa chinensis. The data set can be described thus: Greenhouse trial, efficacy with respect to Leptochloa chinensis. Particulars: post-emergence. The protocol:
as §1, §3, §2, §4

Setting [1] is: 100 g of ai/ha, post-emergence, 1-3-leaf stage, scoring 15 days after application (Table 5).
Where [2] appears, read: 50 g of ai/ha, post-emergence, 1-3-leaf stage, scoring 15 days after application (Table 5).
Where [3] appears, read: Dinebra chinensis, 360 h, read-out: Herbicidal activity % Leptochloa chinensis.

These results are taken from patent US20110287934A1, “HERBICIDAL COMPOSITION FOR TOLERANT OR RESISTANT RICE CROPS” (priority 2010, published 2011).

In the case of `COC(=O)c1ccccc1S(=O)(=O)NC(=O)Nc1nc(C)nc(OC)n1` [C43, metsulfuron-methyl], the “Damage to crop plants (%) rice (GA-tolerant) (≦15-20% acceptable)” value (“Damage to crop plants (%) rice” below) in the data set with rice (GA-tolerant) (in vivo) was 15%. The “Herbicidal efficacy % Cyperus esculentus” value with Cyperus esculentus (3 g of ai/ha) stood at 0%.
On to `O=C(O)COc1ccc(Cl)cc1Cl` [C20, 2,4-D], for which the “Damage to crop plants (%) rice” value with rice (GA-tolerant) (setting [1]) is 0%. Also, the “Herbicidal efficacy % Cyperus esculentus” value in the data set on Cyperus esculentus (100 g of ai/ha) is on record as 20%.
For `CS(=O)(=O)c1ccc(C(=O)C2C(=O)CCCC2=O)c(Cl)c1COCC1CCCO1` (centres unmarked) [C64, tefuryltrione], in the data set with rice (GA-tolerant) (setting [2]), the “Damage to crop plants (%) rice” value came out at 0%. The “Herbicidal efficacy % Cyperus esculentus” value with Cyperus esculentus (50 g of ai/ha) was determined as 30%.
As to `CCOc1ccccc1OS(=O)(=O)NC(=O)Nc1nc(OC)cc(OC)n1` [C24, ethoxysulfuron], the “Damage to crop plants (%) rice” value in the data set with rice (GA-tolerant) (in vivo) is 0%. The “Herbicidal efficacy % Amaranthus retroflexus” value in the data set with Amaranthus retroflexus (10 g of ai/ha) was determined as 40%.
On to `CCN(C(=O)n1nnn(-c2ccccc2Cl)c1=O)C1CCCCC1` [C30, fentrazamide], for which the “Herbicidal efficacy % Amaranthus retroflexus” value with Amaranthus retroflexus (75 g of ai/ha) stood at 30%.
As for `CC(C)Oc1cc(-n2nc(C(C)(C)C)oc2=O)c(Cl)cc1Cl` [C50, oxadiazon], the “Damage to crop plants (%) rice” value in the data set with rice (GA-tolerant) (in vivo) is recorded as 0%. Also, in the data set with Cyperus esculentus (3 g of ai/ha), the “Herbicidal efficacy % Cyperus esculentus” value came to 10%.
As for `COC(=O)c1nc(-c2ccc(Cl)c(OC)c2F)cc(N)c1Cl` [B1.1, methyl 4-amino-3-chloro-6-(4-chloro-2-fluoro-3-methoxyphenyl)pyridine-2-carboxylate], the “Damage to crop plants (%) rice” value in the data set with rice (GA-tolerant) (in vivo) is listed as 0%. Further, in the data set on Amaranthus retroflexus (20 g of ai/ha), the “Herbicidal efficacy % Amaranthus retroflexus” value turned out to be 90%. The “Herbicidal efficacy % Cyperus esculentus” value in the data set on Cyperus esculentus (20 g of ai/ha) stood at 60%. Besides, the inhibition at 20 g/ha in the data set on Leptochloa chinensis (setting [3]) turned out to be 45%.
Take `CCC(=O)Nc1ccc(Cl)c(Cl)c1` [C55, propanil]: the “Damage to crop plants (%) rice” value in the data set with rice (GA-tolerant) (500 g of ai/ha, post-emergence, 1-3-leaf stage, scoring 15 days after application (Table 5)) stood at 0%. Further, the “Herbicidal efficacy % Cyperus esculentus” value with Cyperus esculentus (500 g of ai/ha) came out at 10%.
For the compound oxadiargyl [C49], in the data set on Leptochloa chinensis (25 g of ai/ha, 1-3-leaf stage, scoring 15 days after application), the “Herbicidal activity % Leptochloa chinensis” value is given as 70%.
With `CCOC(=O)[C@@H](C)Oc1ccc(Oc2nc3ccc(Cl)cc3o2)cc1` [C29, fenoxaprop-P-ethyl], the “Damage to crop plants (%) rice” value in the data set on rice (GA-tolerant) (10 g of ai/ha, post-emergence, 2-3-leaf stage, scoring 13 days after treatment) came out at 10%. Further, in the data set with Amaranthus retroflexus (10 g of ai/ha), the “Herbicidal efficacy % Amaranthus retroflexus” value came to 10%.
With `CP(=O)(O)CCC(N)C(=O)O` (centres unmarked) [A1.1, glufosinate-ammonium], the “Damage to crop plants (%) rice” value with rice (GA-tolerant) (setting [1]) worked out at 10%; with rice (GA-tolerant) (100 g of ai/ha, post-emergence, 1-3-leaf stage, scoring 15 days after application (Table 6)), 10%; with rice (GA-tolerant) (100 g of ai/ha, post-emergence, 2-3-leaf stage, scoring 13 days after treatment), 10%. Moreover, the “Herbicidal efficacy % Amaranthus retroflexus” value in the data set on Amaranthus retroflexus (100 g of ai/ha) was determined as 55%. The “Herbicidal efficacy % Cyperus esculentus” value in the data set on Cyperus esculentus (100 g of ai/ha) is 25%. Besides, the inhibition at 100 g/ha with Leptochloa chinensis (setting [3]) was 10%.
As to `C[C@@H](Oc1ccc(Oc2ccc(C#N)cc2F)cc1)C(=O)O` [C19, cyhalofop], the “Damage to crop plants (%) rice” value with rice (GA-tolerant) (setting [2]) turned out to be 0%. For the same compound, the “Herbicidal efficacy % Cyperus esculentus” value with Cyperus esculentus (50 g of ai/ha) stood at 10%.
As for `CC1(C)CON(Cc2ccccc2Cl)C1=O` [C17, clomazone], the “Damage to crop plants (%) rice” value in the data set on rice (GA-tolerant) (setting [1]) is on record as 0%. Besides, the “Herbicidal efficacy % Cyperus esculentus” value with Cyperus esculentus (100 g of ai/ha) is on record as 10%.
With `CCOC(=O)c1cnn(C)c1S(=O)(=O)NC(=O)Nc1nc(OC)cc(OC)n1` [C59, pyrazosulfuron-ethyl], in the data set on rice (GA-tolerant) (50 g of ai/ha, post-emergence, 2-3-leaf stage, scoring 13 days after treatment), the “Damage to crop plants (%) rice” value was found to be 10%. Besides, the “Herbicidal efficacy % Amaranthus retroflexus” value with Amaranthus retroflexus (50 g of ai/ha) was 60%.
Take `Cc1nn(-c2cc(CC(Cl)C(=O)O)c(Cl)cc2F)c(=O)n1C(F)F` (centres unmarked) [C13, carfentrazone]: the “Damage to crop plants (%) rice” value in the data set with rice (GA-tolerant) (4 g of ai/ha, post-emergence, 1-3-leaf stage, scoring 15 days after application (Table 5)) came to 10%. Besides, the “Herbicidal efficacy % Cyperus esculentus” value with Cyperus esculentus (4 g of ai/ha) is 0%.
As for `COc1nc(OC)nc(C(=O)c2cccc(F)c2N(C)S(=O)(=O)C(F)F)n1` [C72, AE 196 triafamone], the “Damage to crop plants (%) rice” value in the data set with rice (GA-tolerant) (6 g of ai/ha, post-emergence, 1-3-leaf stage, scoring 15 days after application (Table 5)) came to 0%. The “Herbicidal efficacy % Cyperus esculentus” value in the data set with Cyperus esculentus (6 g of ai/ha) came to 65%.
In the case of `CCC(CC)Nc1c([N+](=O)[O-])cc(C)c(C)c1[N+](=O)[O-]` [C53, pendimethalin], the “Damage to crop plants (%) rice” value in the data set on rice (GA-tolerant) (200 g of ai/ha, post-emergence, 2-3-leaf stage, scoring 13 days after treatment) was 10%. Moreover, the “Herbicidal efficacy % Amaranthus retroflexus” value in the data set on Amaranthus retroflexus (200 g of ai/ha) turned out to be 50%.
